Source: PMC10578352, “Identification of a Protein Arginine Methyltransferase 7 (PRMT7)/Protein Arginine Methyltransferase 9 (PRMT9) Inhibitor” (Journal of Medicinal Chemistry, 2023)
“Also recorded” adds a separate entry of the source.

Experiments:
Assay type in all cases: biochemical
[1] = target: T1, human recombinant PRMT9 (Homo sapiens, UniProt Q6P2P2); experiment: AlphaLISA PRMT9 activity assay (modified BPS kit, biotinylated SF3B2 peptide); conditions: for IC50 / PRMT9 IC50: PRMT9 0.105 μM, biotinylated SF3B2 (500–519) peptide 100 nM, SAM 25 μM; for PRMT9 inhibition (in words): in-house AlphaLISA assay
T1 construct: human recombinant PRMT9 (2–845; N-terminal FLAG-tag, C-terminal His6-tag); FLAG (N); His6 (C); purchased BPS BioScience 79124
T1 sequence (Q6P2P2 2-845): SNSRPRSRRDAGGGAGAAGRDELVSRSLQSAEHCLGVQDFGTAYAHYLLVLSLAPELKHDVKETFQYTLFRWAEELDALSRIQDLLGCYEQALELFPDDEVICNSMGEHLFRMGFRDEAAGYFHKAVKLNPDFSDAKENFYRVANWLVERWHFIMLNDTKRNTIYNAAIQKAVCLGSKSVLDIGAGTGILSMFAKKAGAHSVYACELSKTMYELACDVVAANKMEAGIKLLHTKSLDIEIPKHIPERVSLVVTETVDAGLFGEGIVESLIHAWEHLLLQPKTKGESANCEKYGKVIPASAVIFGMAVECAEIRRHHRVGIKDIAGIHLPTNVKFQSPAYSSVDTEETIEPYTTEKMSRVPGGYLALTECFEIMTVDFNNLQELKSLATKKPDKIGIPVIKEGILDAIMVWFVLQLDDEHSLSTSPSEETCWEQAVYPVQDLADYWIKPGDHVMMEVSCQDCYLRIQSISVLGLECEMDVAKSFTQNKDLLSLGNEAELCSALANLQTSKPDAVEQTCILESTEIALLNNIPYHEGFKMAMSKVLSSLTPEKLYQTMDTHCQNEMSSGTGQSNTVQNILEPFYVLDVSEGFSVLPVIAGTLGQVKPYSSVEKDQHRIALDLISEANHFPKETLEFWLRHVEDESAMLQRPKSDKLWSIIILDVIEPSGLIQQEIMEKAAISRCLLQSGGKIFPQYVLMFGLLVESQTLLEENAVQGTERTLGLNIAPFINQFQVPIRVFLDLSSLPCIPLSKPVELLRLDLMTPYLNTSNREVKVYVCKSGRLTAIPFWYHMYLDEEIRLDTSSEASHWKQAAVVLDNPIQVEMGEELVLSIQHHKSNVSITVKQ
Procedure: Accordingly, all the enzymatic inhibition data were obtained by performing the assays in these optimized conditions.
The reaction was incubated for 60 min. Afterward, in each well, 5 μL of a 1:100 dilution of Primary antibody 28 (BPS BioScience, #52140Z3) in Detection buffer (BPS BioScience) and 5 μL of anti-Rabbit acceptor beads (PerkinElmer, #AL104C) were added to obtain a final concentration of 20 μg/mL.
For each incubation step, the OptiPlate was sealed with a protective foil to prevent evaporation and contamination. Donor and Acceptor beads were added to the mixture in subdued light.
The 100% activity (positive control) was reached using vehicle (DMSO), while 0% activity (negative control) was obtained without the protein. Data were analyzed by using Excel and Prism software. Values obtained for each compound are mean ± SD determined for three separate experiments.

[2] = target: T2, PRMT3 (Homo sapiens, UniProt O60678); experiment: HotSpot radioisotope-based filter assay, PRMT3; conditions: Figure 2; from IC50 values of ref 31
T2 construct: PRMT3 (residues 2–531, C-terminus); with an N-terminal His-tag; His (N); purchased Reaction Biology Corporation
T2 sequence (O60678 2-531): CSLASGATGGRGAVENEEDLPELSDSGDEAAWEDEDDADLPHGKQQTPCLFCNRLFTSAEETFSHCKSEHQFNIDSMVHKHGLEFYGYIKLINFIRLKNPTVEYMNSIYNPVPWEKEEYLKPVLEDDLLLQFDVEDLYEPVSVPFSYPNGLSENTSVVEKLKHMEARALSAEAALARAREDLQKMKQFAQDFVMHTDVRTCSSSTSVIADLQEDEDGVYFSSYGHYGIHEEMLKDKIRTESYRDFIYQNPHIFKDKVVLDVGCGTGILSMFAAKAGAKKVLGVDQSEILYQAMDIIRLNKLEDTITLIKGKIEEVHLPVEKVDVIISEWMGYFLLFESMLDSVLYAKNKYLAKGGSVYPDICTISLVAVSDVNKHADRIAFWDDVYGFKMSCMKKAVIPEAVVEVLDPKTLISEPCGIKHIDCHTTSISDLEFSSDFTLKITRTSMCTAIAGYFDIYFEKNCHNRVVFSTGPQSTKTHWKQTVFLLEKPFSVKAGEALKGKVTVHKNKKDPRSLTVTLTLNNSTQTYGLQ
Procedure: (§1) Then, ^3H-SAM (final concentration of 1 μM) was delivered into the reaction mixture to initiate the reaction. After incubation for 60 min at 30 °C, the reaction mixture was delivered to filter-paper for detection (as assessed by scintillation). Data were analyzed using Excel and GraphPad Prism 6.0 software (GraphPad Software Inc., San Diego, CA) for IC50 curve fits using sigmoidal dose vs response - variable slope (four parameters) equations.

[3] = target: T3, PRMT1 (Homo sapiens, UniProt Q99873); experiment: HotSpot radioisotope-based filter assay, PRMT1; conditions: Figure 2; from IC50 values of ref 31
T3 construct: PRMT1 (residues 2–371, C-terminus); with an N-terminal GST-tag; GST (N); purchased Reaction Biology Corporation
T3 sequence (Q99873 2-371): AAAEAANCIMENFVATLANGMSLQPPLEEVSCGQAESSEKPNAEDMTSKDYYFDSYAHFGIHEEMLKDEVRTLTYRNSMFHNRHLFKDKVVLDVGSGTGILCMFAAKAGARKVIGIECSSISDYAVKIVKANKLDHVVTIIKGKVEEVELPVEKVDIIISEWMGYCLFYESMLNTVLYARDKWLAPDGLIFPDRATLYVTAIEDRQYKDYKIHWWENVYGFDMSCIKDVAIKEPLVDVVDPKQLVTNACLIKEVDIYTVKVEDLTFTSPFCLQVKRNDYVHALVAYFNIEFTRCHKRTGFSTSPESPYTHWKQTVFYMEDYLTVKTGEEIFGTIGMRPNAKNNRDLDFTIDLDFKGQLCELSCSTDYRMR
Procedure: as §1

[4] = target: T4, PRMT6 (Homo sapiens, UniProt Q96LA8); experiment: HotSpot radioisotope-based filter assay, PRMT6; conditions: Figure 2; from IC50 values of ref 31
T4 construct: PRMT6 (residues 2–375, C-terminus); with an N-terminal GST-tag; GST (N); purchased Reaction Biology Corporation
T4 sequence (Q96LA8 2-375): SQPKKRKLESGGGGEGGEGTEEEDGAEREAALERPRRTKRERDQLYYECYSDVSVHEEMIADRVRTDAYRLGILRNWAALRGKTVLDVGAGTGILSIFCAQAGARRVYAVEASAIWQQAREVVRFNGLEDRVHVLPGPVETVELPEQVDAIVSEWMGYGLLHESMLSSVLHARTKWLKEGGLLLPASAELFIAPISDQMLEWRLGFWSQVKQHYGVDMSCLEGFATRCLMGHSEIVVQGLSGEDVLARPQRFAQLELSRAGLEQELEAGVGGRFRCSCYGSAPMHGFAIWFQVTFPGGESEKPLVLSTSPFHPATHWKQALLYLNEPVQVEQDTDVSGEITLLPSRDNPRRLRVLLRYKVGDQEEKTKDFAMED
Procedure: as §1

[5] = target: T5, PRMT4 (Homo sapiens, UniProt Q86X55); experiment: HotSpot radioisotope-based filter assay, PRMT4; conditions: Figure 2; from IC50 values of ref 31
T5 construct: PRMT4 (residues 2–608, C-terminus); with an N-terminal GST-tag; GST (N); purchased Reaction Biology Corporation
T5 sequence (Q86X55 2-608): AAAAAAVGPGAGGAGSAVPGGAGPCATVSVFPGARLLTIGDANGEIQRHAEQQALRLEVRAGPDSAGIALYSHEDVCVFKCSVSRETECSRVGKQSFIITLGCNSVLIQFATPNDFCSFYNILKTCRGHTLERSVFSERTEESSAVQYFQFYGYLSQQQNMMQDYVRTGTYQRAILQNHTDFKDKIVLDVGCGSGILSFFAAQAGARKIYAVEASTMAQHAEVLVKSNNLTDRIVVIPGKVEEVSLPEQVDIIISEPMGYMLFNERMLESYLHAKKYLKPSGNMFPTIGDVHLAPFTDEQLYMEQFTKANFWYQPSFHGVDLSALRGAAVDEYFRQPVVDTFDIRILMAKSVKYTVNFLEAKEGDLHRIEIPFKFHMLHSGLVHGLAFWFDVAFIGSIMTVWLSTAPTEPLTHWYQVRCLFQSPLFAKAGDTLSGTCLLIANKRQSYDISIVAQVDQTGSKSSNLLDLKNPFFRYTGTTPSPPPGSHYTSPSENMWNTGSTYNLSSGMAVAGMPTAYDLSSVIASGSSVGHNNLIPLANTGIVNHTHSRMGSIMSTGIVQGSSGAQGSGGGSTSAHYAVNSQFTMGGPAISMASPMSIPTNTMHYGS
Procedure: as §1

[6] = target: T6, PRMT5/MEP50 complex (Homo sapiens, UniProt O14744); experiment: HotSpot radioisotope-based filter assay, PRMT5; conditions: Figure 2; from IC50 values of ref 31
T6 construct: residues PRMT5 2–637, C-terminus, and MEP50 2–342, C-terminus; FLAG (N); purchased Reaction Biology Corporation
T6 sequence (O14744 2-637): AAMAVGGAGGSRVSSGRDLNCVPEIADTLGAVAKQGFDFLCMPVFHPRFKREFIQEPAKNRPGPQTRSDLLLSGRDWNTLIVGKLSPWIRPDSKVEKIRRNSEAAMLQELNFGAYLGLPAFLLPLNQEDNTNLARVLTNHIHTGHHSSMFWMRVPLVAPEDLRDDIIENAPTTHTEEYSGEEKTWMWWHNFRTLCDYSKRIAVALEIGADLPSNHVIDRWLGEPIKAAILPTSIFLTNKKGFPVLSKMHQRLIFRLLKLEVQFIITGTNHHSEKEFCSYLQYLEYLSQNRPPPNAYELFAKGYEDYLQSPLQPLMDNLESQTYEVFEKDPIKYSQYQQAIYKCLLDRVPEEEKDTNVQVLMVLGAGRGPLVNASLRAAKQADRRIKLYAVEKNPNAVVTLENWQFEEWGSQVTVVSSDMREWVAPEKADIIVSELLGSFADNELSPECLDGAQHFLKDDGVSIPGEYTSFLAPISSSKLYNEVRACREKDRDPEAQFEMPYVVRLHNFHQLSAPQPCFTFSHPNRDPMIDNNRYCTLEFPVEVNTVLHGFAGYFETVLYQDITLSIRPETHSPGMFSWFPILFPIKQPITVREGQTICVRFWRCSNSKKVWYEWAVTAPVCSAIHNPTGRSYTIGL
T6 sequence (Q9BQA1 2-342 partner limits assumed): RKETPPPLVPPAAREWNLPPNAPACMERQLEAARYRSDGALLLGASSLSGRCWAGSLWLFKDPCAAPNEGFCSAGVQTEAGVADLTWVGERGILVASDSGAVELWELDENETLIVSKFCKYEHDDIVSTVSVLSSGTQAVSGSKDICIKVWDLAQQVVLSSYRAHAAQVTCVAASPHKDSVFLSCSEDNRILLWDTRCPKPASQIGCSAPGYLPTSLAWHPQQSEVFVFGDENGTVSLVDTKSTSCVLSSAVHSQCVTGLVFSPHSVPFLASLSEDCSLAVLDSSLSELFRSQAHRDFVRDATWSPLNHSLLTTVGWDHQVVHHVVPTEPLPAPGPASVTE
Procedure: as §1

[7] = target: T7, PRMT8 (Homo sapiens, UniProt Q9NR22); experiment: HotSpot radioisotope-based filter assay, PRMT8; conditions: Figure 2; from IC50 values of ref 31
T7 construct: (residues 61–394, C-terminus); with C- and N-terminal His-tags; His (N); His (C); purchased Reaction Biology Corporation
T7 sequence (Q9NR22 61-394): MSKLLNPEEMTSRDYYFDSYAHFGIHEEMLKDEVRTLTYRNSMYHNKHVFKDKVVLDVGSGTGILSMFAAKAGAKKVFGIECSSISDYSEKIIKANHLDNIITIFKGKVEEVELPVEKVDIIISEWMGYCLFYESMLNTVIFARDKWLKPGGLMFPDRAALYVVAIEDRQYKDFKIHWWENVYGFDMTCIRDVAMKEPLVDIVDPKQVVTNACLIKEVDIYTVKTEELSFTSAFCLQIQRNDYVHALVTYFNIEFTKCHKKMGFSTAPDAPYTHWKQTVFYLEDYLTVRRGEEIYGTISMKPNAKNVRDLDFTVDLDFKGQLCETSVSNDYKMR
Procedure: as §1

Structure (SMILES)	IC50 [1] [nM]	selectivity index for PRMT7 over PRMT3 [2] [fold]	selectivity index for PRMT7 over PRMT1 [3] [fold]	selectivity index for PRMT7 over PRMT6 [4] [fold]	selectivity index for PRMT7 over PRMT4 [5] [fold]	selectivity index for PRMT7 over PRMT5 [6] [fold]	selectivity index for PRMT7 over PRMT8 [7] [fold]	PRMT9 IC50 [1]	PRMT9 inhibition (in words) [1]
COC(=O)c1cc(O)c2cc(NC(=O)NCCCCCCNC(=N)NC[C@H]3O[C@@H](n4cnc5c(N)ncnc54)[C@H](O)[C@@H]3O)ccc2c1 [1d]	1020	–	–	–	–	–	–	–	–
COC(=O)c1cc(O)c2cc(NC(=O)NCCCCCCCNC(=N)NC[C@H]3O[C@@H](n4cnc5c(N)ncnc54)[C@H](O)[C@@H]3O)ccc2c1 [1e]	1300	20	4	56	0.28	5	9	–	–
COC(=O)c1cc(O)c2cc(NC(=O)NCCCCNC(=N)NCC[C@H]3O[C@@H](n4cnc5c(N)ncnc54)[C@H](O)[C@@H]3O)ccc2c1 [1f]	1200	46	22	100	0.04	0.51	27	–	–
COC(=O)c1cc(O)c2cc(NC(=O)NCCCCNC(=N)NCCC[C@H]3O[C@@H](n4cnc5c(N)ncnc54)[C@H](O)[C@@H]3O)ccc2c1 [1g]	> 10000	3	0.38	0.93	0.002	0.17	0.3	–	–
CCOC(=O)c1cc2cc(NC(=O)CNC(=O)Nc3ccc([N+](=O)[O-])cc3)ccc2[nH]1 [EML105]	–	–	–	–	–	–	–	no inhibition	no PRMT9 inhibition; also recorded: no activity
COC(=O)c1cc(O)c2cc(NC(=O)Nc3ccc4cc(C(=O)OC)cc(O)c4c3)ccc2c1 [EML107]	–	–	–	–	–	–	–	no inhibition	no PRMT9 inhibition; also recorded: no activity
O=C(Nc1ccc2cc(C(=O)O)cc(O)c2c1)Nc1ccc2cc(C(=O)O)cc(O)c2c1 [EML108]	–	–	–	–	–	–	–	no inhibition	no PRMT9 inhibition; also recorded: no activity
O=C(Nc1ccc2[nH]cc(C(=O)O)c2c1)Nc1ccc2[nH]cc(C(=O)O)c2c1 [EML145]	–	–	–	–	–	–	–	no inhibition	no PRMT9 inhibition; also recorded: no activity
COC(=O)c1c[nH]c2ccc(NC(=O)CC(=O)Nc3ccc4[nH]cc(C(=O)OC)c4c3)cc12 [EML147]	–	–	–	–	–	–	–	no inhibition	no PRMT9 inhibition; also recorded: no activity
O=C(CC(=O)Nc1ccc2[nH]cc(C(=O)O)c2c1)Nc1ccc2[nH]cc(C(=O)O)c2c1 [EML148]	–	–	–	–	–	–	–	no inhibition	no PRMT9 inhibition; also recorded: no activity
